# Data reported in patent publication US6573060B1, “Methods and compositions for targeting DNA metabolic processes using aminoglycoside derivatives” (University of Virginia Patent Foundation, priority 1997, dated 2003).
# How the values were obtained:
# DNA-dependent ATPase A = target: T1, DNA-dependent ATPase A (Bos taurus, UniProt Q9TTA5); test: Inhibition of ATP hydrolysis by DNA-dependent ATPase A (overexpressed 82 kDa ADAAD); assay type: biochemical, bovine; settings: Ki, Table 4; determined in the presence of effector
# T1 sequence (Q9TTA5 222-940): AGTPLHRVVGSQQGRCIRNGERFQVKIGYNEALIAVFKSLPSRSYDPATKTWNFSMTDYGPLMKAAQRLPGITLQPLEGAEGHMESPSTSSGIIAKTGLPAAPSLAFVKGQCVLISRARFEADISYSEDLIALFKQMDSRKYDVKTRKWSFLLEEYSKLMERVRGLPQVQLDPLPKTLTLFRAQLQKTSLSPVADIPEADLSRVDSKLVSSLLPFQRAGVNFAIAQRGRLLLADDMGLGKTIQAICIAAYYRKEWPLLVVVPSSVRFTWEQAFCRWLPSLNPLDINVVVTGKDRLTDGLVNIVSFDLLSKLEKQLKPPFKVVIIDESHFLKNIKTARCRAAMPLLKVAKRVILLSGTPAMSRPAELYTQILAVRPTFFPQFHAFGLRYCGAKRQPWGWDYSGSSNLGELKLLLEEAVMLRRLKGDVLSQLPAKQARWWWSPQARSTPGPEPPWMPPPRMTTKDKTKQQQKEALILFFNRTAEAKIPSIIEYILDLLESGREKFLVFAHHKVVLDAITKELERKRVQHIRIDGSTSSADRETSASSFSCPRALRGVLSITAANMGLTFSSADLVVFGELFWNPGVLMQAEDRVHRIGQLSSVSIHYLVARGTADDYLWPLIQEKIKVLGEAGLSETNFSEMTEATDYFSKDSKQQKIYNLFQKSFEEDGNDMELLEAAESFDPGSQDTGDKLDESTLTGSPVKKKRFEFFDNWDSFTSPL
# Protocol: Enzyme (0.2 units (one unit is the amount of enzyme required to hydrolyze 1 μmole of adenosine triphosphate per min)) was mixed with 50 mM Tris-SO4, pH 7.5, 1 mM MgCl2, 5 mM β-mercaptoethanol, 0.5 mg/mL bovine serum albumin, 2 mM phosphoenol pyruvate, 0.03 mg/mL pyruvate kinase, 10 nM of stem-loop DNA, and 2 mM adenosine triphosphate in a total volume of 100 μL. The reaction was typically incubated at 37° C. for 10-60 minutes. At the end of the designated time, 225 μL of 10% sodium dodecyl sulfate and 350 μL of water were added to stop the reaction. Color development requires the addition of two reagents: 180 μL of reagent A (prepared by mixing equal volumes of 60 to 70% perchloric acid and 5% ammonium molybdate in water) and 45 μL of reagent B (0.2 g 1:2:4 aminonaphthol sulfonic acid, 12.0 g sodium metabisulfite, and 2.4 g sodium sulfite dissolved in 100 mL of water) was added. The reaction was incubated at room temperature for 10 minutes and the absorbance was read at 720 nm. The color development was time-dependent and therefore samples must be read at exactly 10 minutes.
# Enzyme (0.2 units (one unit is the amount of enzyme required to hydrolyze 1 μmole of adenosine triphosphate per min)) was mixed with 25 mM Tris-acetate pH 7.5, 6 mM Mg(acetate)2, 60 mM KCl, 5 mM β-mercaptoethanol, 3 mM phosphoenol pyruvate, 10 units/mL pyruvate kinase, 10 units/mL lactate dehydrogenase 10 nM DNA, 2 mM adenosine triphosphate, and 0.1 mg/mL NADH in a final volume of 1 mL. The progress of the reaction at 37° C. was monitored at 340 nm using an HP8452 spectrophotometer.
# Enzyme (0.2 U) was mixed with 50 mM Tris-SO4, pH 7.5, 1 mM MgCl2, 5 mM β-mercaptoethanol, 0.5 mg/mL bovine serum albumin, 2 mM phosphoenol pyruvate, 0.03 mg/mL pyruvate kinase, 10 nM of stem-loop DNA, and 2 mM adenosine triphosphate in a total volume of 50 μL. Three (3) μCi of [^32P]-γ-adenosine triphosphate was added to the reaction and typical incubation was for 60 minutes 37° C. EDTA (25 mM) was added to stop the reaction. 10 μL of the reaction was spotted on a poly(ethylenimine)-cellulose plate. The plate was developed using 0.9M LiCl and 7M urea as solvent system. The plate was allowed to dry and autoradiographed either using X-OMAT film or a phosphorimager. […]
# DNA-independent ATPases = test: Effect on DNA-independent ATPases; assay type: biochemical
# Protocol: (§1) A number of different ATPases, both DNA-dependent and DNA-independent, were analyzed for their behavior with respect to these drugs.
# PC3 cell line = test: MTS cell survival assay, PC3 prostate cancer cells; assay type: cell-based, human
# Protocol: (§2) The effect of phosphoaminoglycosides on tumor cell growth was tested in cell culture inhibition studies. 5000 cells were plated in a total volume of 50 μl in a 96 well titer plate. After 24 hours, 50 μl of media and drugs, to the required final concentration, were added. The plates were incubated at 37° C. for 5 days. On the 5th day, the fraction of surviving cells was estimated using a non-radioactive cell proliferation assay (CellTiter 96 AQueous Cell Proliferation Assay from Promega).
# (§3) This is a colorimetric assay that determines the number of viable cells. The assay measures the bioreduction of a tetrazolium compound (3-(4,5-dimethylthiazol-2-yl)-5-(3-carboxymethoxyphenyl)-2-(4-sulfophenyl)-2H-tetrazolium, inner salt; MTS), via an electron coupling reagent (phenazine methosulfate; PMS), to formazan, which is soluble in the tissue culture medium. The absorbance of formazan at 490 nm can be measured from the 96 well assay plate without additional processing. The conversion of MTS into the aqueous soluble formazan is accomplished by dehydrogenase enzymes found in metabolically active cells. The quantity of formazan product as measured by the amount of 490 nm absorbance is directly proportional to the number of living cells in culture. 100 μl of the PMS reagent (Promega) was mixed with 2.0 ml of MTS solution (Promega). 20 μl of PMS/MTS solution was added to the cells and the plates were incubated at 37° C. for 2 hours before measuring the absorbance at 490 nm.
# In an initial experiment, four drugs (A-kanamycin, B-phosphokanamycin, C-neomycin, and D-phosphoneomycin) were added to prostate cancer cell cultures in a blind fashion. Two prostate cancer cell lines were incubated with each of the drugs and assayed for cell survivability using the MTS assay (Promega).
# 5000 cells were grown overnight in media and each respective drug (A-kanamycin, B-phosphokanamycin, C-neomycin, and D-phosphoneomycin) was added on the second day. […] Each point is the average of readings from three wells.
# MDA-MB-231 = test: MTS cell survival assay, MDA-MB-231 breast cancer cells; assay type: cell-based; settings: MDA-MB-231, FIG. 9
# Protocol: as §2
# as §3, with “100 μl of the PMS reagent (Promega) was mixed with 2.0 ml of MTS solution (Promega).” left out, “nm. […]” for “nm.”
# MCF-7 = test: MTS cell survival assay, MCF-7 breast cancer cells; assay type: cell-based; settings: MCF-7, FIG. 9
# Protocol: as §2
# as §3, with “100 μl of the PMS reagent (Promega) was mixed with 2.0 ml of MTS solution (Promega).” left out, “nm. […]” for “nm.”
# DNA-dependent ATPases = test: Effect of millimolar neomycin on DNA-dependent ATPases; assay type: biochemical; settings: millimolar concentrations
# Protocol: as §1
# This inhibition is directly attributable to the positive charge that the aminoglycosides carry and thus the sequestering of the DNA (negatively charged) away from the enzyme (the binding of kanamycin directly to DNA has been confirmed—data not shown). In addition, the phosphoneomycin has differing effects on DNA-dependent ATPases from various sources and of various function.
molecule,measurement,setting,value
NCC[C@H](O)C(=O)N[C@@H]1C[C@H](N)[C@@H](O[C@H]2O[C@H](CN)[C@@H](O)[C@H](OP(=O)(O)O)[C@H]2O)[C@H](O)[C@H]1O[C@H]1O[C@H](CO)[C@@H](O)[C@H](N)[C@H]1O [3′ phosphorylated amikacin],Ki,DNA-dependent ATPase A,167 nM
CN[C@@H]1[C@@H](O)[C@@H](O[C@@H]2[C@@H](O)[C@H](O[C@H]3O[C@H](CO)[C@@H](O)[C@H](OP(=O)(O)O)[C@H]3N)[C@@H](N)C[C@H]2N)OC[C@H]1O [3′ phosphorylated gentamicin],Ki,DNA-dependent ATPase A,219 nM
"CN[C@@H]1[C@@H](O)[C@@H](O[C@@H]2[C@@H](O)[C@H](O[C@H]3O[C@H]([C@@H](C)O)[C@@H](O)[C@H](OP(=O)(O)O)[C@H]3N)[C@@H](N)C[C@H]2N)OC[C@]1(C)O [phosphogeneticin, 3′-phosphogeneticin]",Ki,DNA-dependent ATPase A,191 nM
Neomycin B & C (^˜15% Neomycin C) [reference compound],effect on DNA-independent ATPases (in words),DNA-independent ATPases,neither affected
same,effect on PC3 cells (in words),"PC3 cell line; FIG. 8, day five",neither kanamycin nor neomycin had any effect
same,effect on PC3 cell survival (in words),PC3 cell line; concentrations in excess of 1 mM,increased cell survival
same,effect on cell growth (in words),MDA-MB-231,no effect
same,effect on cell growth (in words),MCF-7,no effect
same,inhibition of all DNA-dependent ATPases (in words),DNA-dependent ATPases,some inhibition
